Results on ten compounds are retold here after ChEMBL document CHEMBL1152974, “Ionic interactions for substituted MCH1R inhibitors studied by pK(a) values” (Bioorg Med Chem Lett, 2009).

The nature of series [1]: Association constant, pKa for quinoline nitrogen. Format: physicochemical.
Series [2] in a line: Association constant, pKa for aliphatic nitrogen. Format: physicochemical.

In turn, `CC(=O)Nc1ccc2nc(N(C)CCO)ccc2c1` gave a pKa in series [1] of 8.91.

As to `CC(=O)Nc1ccc2nc(CCCN(C)C)ccc2c1`, the pKa amounted to 12.7 in series [2] and 8.98 in series [1].

As to `CC(=O)Nc1ccc2nc(NCCN(C)C)ccc2c1`, the figures for the pKa in series [2] and in series [1] were 10.8 and 12.2, respectively.

Take `CC(=O)Nc1ccc2nc(C(C)CCN(C)C)ccc2c1` (configuration not stated): the pKa came out at 11.8 in series [2] and 6.56 in series [1].

Regarding `CC(=O)Nc1ccc2nc(C(C)(C)CCN(C)C)ccc2c1`, the pKa in series [2] came to 12.4; in series [1] it was 6.22.

As for `CC(=O)Nc1ccc2ncccc2c1`, the pKa in series [1] is 5.51.

Turning to `CC(=O)Nc1ccc2nc(OCCN(C)C)ccc2c1`, the figures for the pKa in series [2] and in series [1] were 9.94 and 4.64, respectively.

On to `CC(=O)Nc1ccc2nc(SCCN(C)C)ccc2c1`, for which the pKa came out at 11.6 in series [2] and 4.33 in series [1].

On to `CC(=O)Nc1ccc2nc(F)ccc2c1`, for which, in series [1], the pKa was -1.39.

As to `CC(=O)Nc1ccc2nc(N(C)CCN(C)C)ccc2c1`, the pKa in series [2] is 10.2; in series [1], 9.05.
